Here are results for eight molecules from patent publication US11192890B2, “FGFR kinase inhibitors and pharmaceutical uses” (AUCKLAND UNISERVICES LIMITED, priority 2017, dated 2021).

For orientation: IC50 means the concentration at which inhibition is half-maximal. As a reminder, the melting point is the temperature, or range, at which the solid turns liquid.

Molecules are shown by their SMILES. “And” between values parts separate entries of the source, which are not always exact repeats. Equal values may be shown once. Read-outs that look alike come from different tables or passages of the source.

In series [1] the test system is FGFR1 in H520 cells (phospho-ERK1/2). The experiment in a line: Drug washout Western blot assay, H520 cells. Type of series: cell-based. The note with it: H520; for reversible or irreversible inhibition of FGFR1 in cells / concentration required to suppress FGFR1 signalling through phospho-ERK1/2: 2 hours exposure; for reversible or irreversible inhibition of FGFR1 in cells: 100, 300 and 600 nM, with and without washout; for concentration required to suppress FGFR1 signalling through phospho-ERK1/2: tested at 100, 300 and 600 nM; for phospho-ERK1/2 after extensive drug washout: 30 min, washout prior to FGF-stimulation. (In general: A western blot detects proteins with antibodies after separation by electrophoresis.)

The subject of another series is SW780 cells. The experiment in a line: Oxic and anoxic anti-proliferative activity of the prodrugs. Type of series: cell-based. The note with it: Homo sapiens, SW780; oxic conditions; read-out: Cellular Anti-proliferative IC50, SW780, Oxic.
The subject of another series is H520 cells. The experiment in a line: Oxic and anoxic anti-proliferative activity of the prodrugs.
In the next series the test system is SUM52 cells. Described as above. The note with it: for Hypoxic Cytotoxicity Ratio (HCR), SUM52: ratio of oxic and anoxic IC50.
Series [2] relates to SW780 (FGFR3-amplified bladder cancer) xenograft. The experiment in a line: Anti-tumour activity, SW780 xenograft. The note with it: 30 umol/kg, q3dx4, IP. Type of series: in vivo, NIH-III nude mice. As to the method: Specific pathogen-free homozygous female NIH-III nude mice (Charles River Laboratories, Wilmington, Mass.) were inoculated subcutaneously with a single cell suspension of SW780 cells (8×10^6 cells/100 μL with Matrigel; right flank) or SNU-16 cells (10×10^6 cells/100 μL; right flank). When tumour xenografts were established (typically 7-14 days for SW780 and 21-28 days for SNU-16) mice were randomized to treatment groups. Test compounds of the present invention were prepared in Water for Injection (WFI). Mice were dosed by intraperitoneal injection (0.01-0.03 ml/g) using the stated schedules and dose levels. […] Tumour size and body weights were measured at regular intervals. Tumour volume was calculated as […] (length×width^2)/6.

Series [3] concerns FGFR2-amplified SUM52 breast cancer cells. The experiment in a line: Cell proliferation assay (SRB). Type of series: cell-based. The note with it: SUM52, 120 h, read-out: Cellular Anti-proliferative IC50, SUM52, 5 days drug exposure.
Series [4] deals with FGFR2 in SUM52 cells (phospho-ERK1/2). The experiment in a line: Drug washout Western blot assay, SUM52 cells. The note with it: SUM52, 30 min, washout prior to FGF-stimulation. In kind it is cell-based. As to the method: Cells were seeded on the day prior to drug treatment (1 million cells/well; 6-well plate).
Drug stocks were prepared in media using 1 mM or 10 mM DMSO stock solutions. Media was aspirated from each well and replaced with 2 ml of drug-free media for control wells or 2 ml of diluted drug for treated wells. Cells were exposed to drug for 30 min. Recombinant FGF (50 ng/well) was added to each well 15 minutes prior to the end of the drug exposure and protein was extracted as below.
Cells were exposed to drug for 30 min as above. Media was aspirated and each well was washed with 5 ml drug-free media. The wash media was aspirated and replaced with 2 ml drug-free media and cells incubated for a further 30 minutes, after which the wash protocol was repeated. Cells were incubated for a further 90 minutes in drug-free media. Recombinant FGF (50 ng/well) was added to each well 15 minutes prior to the end of the drug-free incubation and protein was extracted as below.
Cell lysates were prepared in 250 μL of RIPA lysis buffer containing protease inhibitor (1:100). After incubation on ice (30 min) and centrifugation (13,000 rpm, 5 min, 4° C.) the supernatants containing the proteins were stored (−20° C.) until required. Bicinchoninic acid (BCA) assay was used to determine the protein concentration of individual cell lysate samples.

For series [5], the system named is FGFR3 in SW780 cells (phospho-ERK1/2). The experiment in a line: Drug washout Western blot assay, SW780 cells. Type of series: cell-based. The note with it: SW780, 30 min; for inhibition of phosphorylation of ERK1/2, no washout: then FGF-stimulation; for phospho-ERK1/2 after extensive drug washout: washout prior to FGF-stimulation.
In series [6] the test system is FGFR3-amplified SW780 bladder cancer cells. The experiment in a line: Cell proliferation assay (SRB). The note with it: Homo sapiens, SW780, 120 h, read-out: Cellular Anti-proliferative IC50, SW780, 5 days drug exposure.
The next series has as its target T1, FGFR3 (Homo sapiens, UniProt P22607).
T1 construct: purchased Invitrogen
The experiment in a line: Isolated enzyme FRET-based Z-Lyte kinase inhibition assay. In kind it is biochemical. The note with it: means from 3 independent experiments; read-out: Isolate Enzyme Inhibition IC50, FGFR3. As for the experimental part: (§1) FGFR1-4 and the Z-Lyte Kinase Assay Kit were purchased from Invitrogen. The concentration gradients from 5.1×10^−11 to 1.0×10^−6 mol/L were used for all the test compounds. The experiments were performed according to the instructions of the manufacturer.
(§2) FGFR1-4 isolated enzyme activity was determined using the FRET-based Z-Lyte kinase inhibition assay. The data are the means from 3 independent experiments.

Another series deals with T2, FGFR4 (Homo sapiens, UniProt P22455).
T2 construct: purchased Invitrogen
T2 sequence (P22455 22-802): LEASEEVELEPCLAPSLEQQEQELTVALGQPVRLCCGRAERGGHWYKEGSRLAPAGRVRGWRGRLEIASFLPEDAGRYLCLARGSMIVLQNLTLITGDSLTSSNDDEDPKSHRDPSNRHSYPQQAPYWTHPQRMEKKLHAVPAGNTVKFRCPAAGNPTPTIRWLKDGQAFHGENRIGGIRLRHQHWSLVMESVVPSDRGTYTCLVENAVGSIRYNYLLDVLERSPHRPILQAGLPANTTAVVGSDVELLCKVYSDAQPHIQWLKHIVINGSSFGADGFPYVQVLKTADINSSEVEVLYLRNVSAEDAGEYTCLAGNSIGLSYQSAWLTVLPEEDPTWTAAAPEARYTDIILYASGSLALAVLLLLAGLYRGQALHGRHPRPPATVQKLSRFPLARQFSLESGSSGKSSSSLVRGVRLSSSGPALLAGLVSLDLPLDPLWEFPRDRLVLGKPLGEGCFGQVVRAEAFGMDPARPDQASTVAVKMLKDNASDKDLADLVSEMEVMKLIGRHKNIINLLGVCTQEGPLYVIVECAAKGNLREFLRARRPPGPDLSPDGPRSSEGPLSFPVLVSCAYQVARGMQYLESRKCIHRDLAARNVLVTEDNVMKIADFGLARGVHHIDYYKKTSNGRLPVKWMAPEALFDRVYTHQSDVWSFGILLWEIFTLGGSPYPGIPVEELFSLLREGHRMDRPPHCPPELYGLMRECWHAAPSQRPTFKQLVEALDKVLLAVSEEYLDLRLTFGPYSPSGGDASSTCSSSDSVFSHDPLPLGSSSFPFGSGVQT
The description is as above. The note with it: means from 3 independent experiments; read-out: Isolate Enzyme Inhibition IC50, FGFR4. In kind it is biochemical. As for the experimental part: as §1, §2

A further series deals with T3, FGFR2 (Homo sapiens, UniProt P21802).
T3 construct: purchased Invitrogen
T3 sequence (P21802 22-821): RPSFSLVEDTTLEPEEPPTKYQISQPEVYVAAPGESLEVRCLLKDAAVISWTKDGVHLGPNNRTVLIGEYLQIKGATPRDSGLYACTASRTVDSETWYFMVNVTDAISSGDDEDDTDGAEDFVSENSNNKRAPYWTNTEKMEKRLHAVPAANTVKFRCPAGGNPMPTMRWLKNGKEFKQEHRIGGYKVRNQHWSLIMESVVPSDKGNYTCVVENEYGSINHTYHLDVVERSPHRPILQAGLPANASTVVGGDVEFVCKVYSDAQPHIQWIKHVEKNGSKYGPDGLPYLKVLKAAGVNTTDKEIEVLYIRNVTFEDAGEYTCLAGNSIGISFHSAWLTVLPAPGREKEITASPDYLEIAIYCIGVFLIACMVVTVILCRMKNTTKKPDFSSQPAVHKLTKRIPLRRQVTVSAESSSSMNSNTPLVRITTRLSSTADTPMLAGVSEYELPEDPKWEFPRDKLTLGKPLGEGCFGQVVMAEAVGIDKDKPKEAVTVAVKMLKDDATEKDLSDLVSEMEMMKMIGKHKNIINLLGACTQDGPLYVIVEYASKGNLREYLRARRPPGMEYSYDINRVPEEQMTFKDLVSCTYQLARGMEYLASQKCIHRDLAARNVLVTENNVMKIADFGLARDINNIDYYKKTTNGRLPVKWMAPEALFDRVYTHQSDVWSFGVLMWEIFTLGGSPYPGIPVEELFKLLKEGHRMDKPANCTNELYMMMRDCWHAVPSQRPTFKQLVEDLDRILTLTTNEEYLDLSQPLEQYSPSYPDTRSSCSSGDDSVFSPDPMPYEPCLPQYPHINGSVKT
The series is described as above. In kind it is biochemical. The note with it: means from 3 independent experiments; read-out: Isolate Enzyme Inhibition IC50, FGFR2. As for the experimental part:
as §1, §2

Where [7] appears, read: read-out: Cellular Anti-proliferative IC50, H520, Oxic, oxic conditions.
The mark [8] stands for this setting: read-out: Cellular Anti-proliferative IC50, SUM52, Anoxic, 4 hours of anoxia, remainder of assay oxic.
[9] abbreviates: read-out: Cellular Anti-proliferative IC50, SUM52, Oxic, oxic conditions.

T1 sequence (P22607 23-806): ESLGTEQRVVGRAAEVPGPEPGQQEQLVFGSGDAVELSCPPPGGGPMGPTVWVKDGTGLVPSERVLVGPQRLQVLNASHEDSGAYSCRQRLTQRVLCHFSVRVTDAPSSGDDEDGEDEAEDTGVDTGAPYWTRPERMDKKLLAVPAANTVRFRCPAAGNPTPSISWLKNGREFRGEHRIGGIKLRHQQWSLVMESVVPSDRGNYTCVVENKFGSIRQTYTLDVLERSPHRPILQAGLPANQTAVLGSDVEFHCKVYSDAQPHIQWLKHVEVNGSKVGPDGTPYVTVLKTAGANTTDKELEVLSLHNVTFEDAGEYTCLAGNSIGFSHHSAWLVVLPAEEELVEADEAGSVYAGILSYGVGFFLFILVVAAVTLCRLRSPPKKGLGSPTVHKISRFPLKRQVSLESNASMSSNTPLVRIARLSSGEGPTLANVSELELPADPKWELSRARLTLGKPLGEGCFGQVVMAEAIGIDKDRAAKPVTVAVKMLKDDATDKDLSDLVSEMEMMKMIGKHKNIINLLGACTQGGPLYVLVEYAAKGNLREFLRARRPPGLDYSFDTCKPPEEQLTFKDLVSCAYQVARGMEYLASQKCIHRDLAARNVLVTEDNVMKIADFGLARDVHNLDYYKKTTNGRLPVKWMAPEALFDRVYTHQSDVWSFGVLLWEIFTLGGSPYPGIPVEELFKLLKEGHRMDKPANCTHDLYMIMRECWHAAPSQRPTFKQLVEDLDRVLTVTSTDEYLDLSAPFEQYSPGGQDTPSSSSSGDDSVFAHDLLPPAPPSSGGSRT

In turn, `COc1cc(OC)c(Cl)c(N2Cc3cnc(NC(C)C)nc3N([C@H]3CCN(C(=O)/C=C/C[N+](C)(C)Cc4c([N+](=O)[O-])ncn4C)C3)C2=O)c1Cl.[Br-]` [Compound 201, (S,E)-4-(3-(3-(2,6-dichloro-3,5-dimethoxyphenyl)-7-(isopropylamino)-2-oxo-3,4-dihydropyrimido[4,5-d]pyrimidin-1(2H)-yl)pyrrolidin-1-yl)-N,N-dimethyl-N-((1-methyl-4-nitro-1H-imidazol-5-yl)methyl)-4-oxobut-2-en-1-aminium bromide] had a melting point of 184 to 187 °C. Moreover, the “reversible or irreversible inhibition of FGFR1 in cells” value (“reversible or irreversible inhibition” for short) in series [1] is on record as “reversible inhibitors”. Moreover, the IC50 with SW780 cells came out at 1990 nM. Besides, in the series on H520 cells (setting [7]), the IC50 came to 902 nM. In addition, the “Hypoxic Cytotoxicity Ratio (HCR), SUM52” value in the series with SUM52 cells was determined as 16. The half-inhibitory concentration (IC50) with SUM52 cells (setting [8]) was 38 nM. Further, the IC50 in the series on SUM52 cells (setting [9]) came out at 612 nM.
The molecule `COc1cc(OC)c(Cl)c(N2Cc3cnc(Nc4ccc(F)cc4)nc3N(C3CCN(C(=O)/C=C/C[N+](C)(C)Cc4c([N+](=O)[O-])ncn4C)CC3)C2=O)c1Cl.O=C([O-])C(F)(F)F` [Compound 205, (E)-4-(4-(3-(2,6-dichloro-3,5-dimethoxyphenyl)-7-((4-fluorophenyl)amino)-2-oxo-3,4-dihydropyrimido[4,5-d]pyrimidin-1(2H)-yl)piperidin-1-yl)-N,N-dimethyl-N-((1-methyl-4-nitro-1H-imidazol-5-yl)methyl)-4-oxobut-2-en-1-aminium 2,2,2-trifluoroacetate] displayed a melting point of 162 to 165 °C. Moreover, in series [1], the “reversible or irreversible inhibition” value was “reversible inhibitors” and the “concentration required to suppress FGFR1 signalling through phospho-ERK1/2” value is reported as above 300 nM. Further, the IC50 in the series with SW780 cells stood at 1470 nM. Further, the IC50 with H520 cells (setting [7]) turned out to be 668 nM. Moreover, the “Hypoxic Cytotoxicity Ratio (HCR), SUM52” value in the series on SUM52 cells was determined as 6. In the series on SUM52 cells (setting [8]), the IC50 was 4 nM. The IC50 in the series with SUM52 cells (setting [9]) stood at 23 nM.
As to `CNc1ncc2cc(-c3c(Cl)c(OC)cc(OC)c3Cl)c(=O)n(C3CCN(C(=O)/C=C/C[N+](C)(C)Cc4c([N+](=O)[O-])ncn4C)CC3)c2n1.[Br-]` [Compound 208, (E)-4-(4-(6-(2,6-dichloro-3,5-dimethoxyphenyl)-2-(methylamino)-7-oxopyrido[2,3-d]pyrimidin-8(7H)-yl)piperidin-1-yl)-N,N-dimethyl-N-((1-methyl-4-nitro-1H-imidazol-5-yl)methyl)-4-oxobut-2-en-1-aminium bromide], the IC50 in the series on SW780 cells is 2580 nM; in the series with H520 cells (setting [7]) it was 4150 nM; in the series with SUM52 cells (setting [8]) it was 3 nM; in the series with SUM52 cells (setting [9]), 13 nM. Besides, in series [2], the “anti-tumour activity (median tumour growth delay)” value is reported as “significant anti-tumour activity”. In series [2] (control 12 days), the “time for tumours to reach 4 times relative tumour volume (RTV4)” value is around 24 days. Moreover, the “Hypoxic Cytotoxicity Ratio (HCR), SUM52” value with SUM52 cells worked out at 5.
For the molecule `COc1cc(OC)c(Cl)c(-c2cc3cnc(NC(C)C)cc3n(C3CCN(C(=O)/C=C/C[N+](C)(C)Cc4c([N+](=O)[O-])ncn4C)CC3)c2=O)c1Cl.[Br-]` [Compound 215, (E)-4-(4-(3-(2,6-dichloro-3,5-dimethoxyphenyl)-7-(isopropylamino)-2-oxo-1,6-naphthyridin-1(2H)-yl)piperidin-1-yl)-N,N-dimethyl-N-((1-methyl-4-nitro-1H-imidazol-5-yl)methyl)-4-oxobut-2-en-1-aminium bromide], the melting point fell in the range of 202 to 205 °C. Moreover, in the series with SW780 cells, the concentration for half-maximal inhibition (IC50) was found to be 3500 nM. In the series on H520 cells (ratio of oxic and anoxic IC50), the “Hypoxic Cytotoxicity Ratio (HCR), H520” value came out at 19. Also, the IC50 in the series with H520 cells (read-out: Cellular Anti-proliferative IC50, H520, Anoxic, 4 hours of anoxia, remainder of assay oxic) came to 209 nM. In the series on H520 cells (setting [7]), the IC50 was determined as 4020 nM. Further, the “Hypoxic Cytotoxicity Ratio (HCR), SUM52” value with SUM52 cells worked out at 106. In addition, in the series with SUM52 cells (setting [8]), the half-maximal inhibitory concentration (IC50) is 11 nM. Moreover, the IC50 in the series on SUM52 cells (setting [9]) worked out at 1190 nM.
In the case of `CCN(CC)CCCCNc1ncc2cc(-c3cc(OC)cc(OC)c3)c(NC(=O)NC(C)(C)C)nc2n1` [PD173074, reference compound], the concentration for half-maximal inhibition (IC50) is 12 nM in series [3] and 84 nM in series [6]. Further, the “phospho-ERK1/2 after extensive drug washout” value in [1] (100 nM), in series [1] (1000 nM), in [4] (100 nM), in [4] (1000 nM), in series [5] (100 nM) and in series [5] (1000 nM) was “restoration” throughout. In series [1], the “reversible or irreversible inhibition” value is “potent reversible inhibitor”. In [1], the “concentration required to suppress FGFR1 signalling through phospho-ERK1/2” value is at most 100 nM. Besides, the entries for the “inhibition of phosphorylation of ERK1/2, no washout” value in series [5] (100 nM) and in series [5] (1000 nM) were “less effective” and “complete inhibition”, respectively.
As for `COc1cc(OC)c(Cl)c(-c2cc3cnc(NC(C)C)nc3n(Cc3cccc(NC(=O)/C=C/C[N+](C)(C)Cc4c([N+](=O)[O-])ncn4C)c3)c2=O)c1Cl.[Br-]` [Compound 213, (E)-4-((3-((6-(2,6-dichloro-3,5-dimethoxyphenyl)-2-(isopropylamino)-7-oxopyrido[2,3-d]pyrimidin-8(7H)-yl)methyl)phenyl)amino)-N,N-dimethyl-N-((1-methyl-4-nitro-1H-imidazol-5-yl)methyl)-4-oxobut-2-en-1-aminium bromide], in series [2], the “anti-tumour activity (median tumour growth delay)” value is reported as “significant anti-tumour activity”. Moreover, the “Hypoxic Cytotoxicity Ratio (HCR), SUM52” value in the series on SUM52 cells is given as 5. The figures for the IC50 in the series on SUM52 cells (setting [8]) and with SUM52 cells (setting [9]) were 7 nM and 40 nM, respectively.
With `COc1cc(Nc2ncc3c(n2)N(C2CCN(C(=O)/C=C/CN(C)C)CC2)C(=O)N(c2c(Cl)c(OC)cc(OC)c2Cl)C3)ccc1F` [Compound 118, (E)-3-(2,6-dichloro-3,5-dimethoxyphenyl)-1-(1-(4-(dimethylamino)but-2-enoyl)piperidin-4-yl)-7-((4-fluoro-3-methoxyphenyl)amino)-3,4-dihydropyrimido[4,5-d] pyrimidin-2(1H)-one], the IC50 on FGFR3 is 2.4 nM; at FGFR4, < 100 nM and 9.6 nM.
Turning to `CNc1ncc2c(n1)N(CCCNC(=O)/C=C/CN(C)C)C(=O)N(c1c(Cl)c(OC)cc(OC)c1Cl)C2` [Compound 125, (E)-N-(3-(3-(2,6-dichloro-3,5-dimethoxyphenyl)-7-(methylamino)-2-oxo-3,4-dihydropyrimido[4,5-d]pyrimidin-1(2H)-yl)propyl)-4-(dimethylamino)but-2-enamide], the IC50 at FGFR2 is 6.5 nM; at FGFR3 it was 51 nM; at FGFR4 it was above 1000 nM.
